Source: US20130143795A1, “METHOD OF TREATMENT OF HIV OR AIDS” (Adistem Ltd., priority 2010, published 2013)
Several values for one entry are separate records, joined by “and”; a condition that tells them apart may be missing. Equal entries are not always repeated.

Legend:
[1] = test system: CXCR4 coreceptor-trophic HT/92/599 strain of HIV-1; experiment: Antiviral assay in fresh human PBMCs, HIV-1 HT/92/599; assay type: cell-based; conditions: for antiviral activity against HIV-1 HT/92/599 (T-cell tropic): concentrations up to a high test concentration of 500 μM
Description: (§1) The peptide Ac-LKKTETQ-OH was evaluated in fresh human peripheral blood mononuclear cells (PBMCs) against CXCR4 coreceptor-trophic HT/92/599 and the CCR5 coreceptor-trophic BaL subtype B strains of HIV-1. The peptide was added to the cells at 8 hours prior to infection and immediately prior to infection. The AZT control compound was evaluated in parallel with the peptide and yielded EC50 values of 8 and 6 nM against HIV-1HT/92/599 and values of 6 and 10 nM against HIV-1PaL.

[2] = test system: CCR5 coreceptor-trophic BaL subtype B strain of HIV-1; experiment: Antiviral assay in fresh human PBMCs, HIV-1 BaL; assay type: cell-based; conditions: for antiviral activity against HIV-1 BaL (macrophage tropic): concentrations up to a high test concentration of 500 μM
Description: as §1

HIV = experiment: Pilot trial: HIV viral load (by PCR); assay type: in vivo
Description: (§2) The peptide Ac-LKKTETQ-OH was the active therapeutic agent investigated in a pilot trial on twenty similar HIV positive men and women, some who had progressed to severe AIDS.
(§3) Each man or women was injected subcutaneously with a composition comprising the peptide Ac-LKKTETQ-OH (10 mg), once a week for 12 weeks. Blood tests for CD4 and CD8-positive cells and HIV viral load (by PCR) and routine pathology were conducted at baseline, 8 weeks and 12 weeks. […] A small drop in blood glucose was seen but this was not determined to be significant.

[3] = test system: CD8-positive white blood cell; experiment: Pilot trial: CD8-positive white blood cell counts; assay type: in vivo, human
Description: as §2, §3

Pilot trial: body weight = assay type: in vivo, human; conditions: HIV positive patients, 10 mg s.c. once a week, one value per patient (A-T)
Description: as §2, §3

[4] = Pilot trial: routine pathology and adverse effects; assay type: in vivo, human; conditions: 10 mg s.c. once a week for 12 weeks
Description: as §2, §3

[5] = test system: CD4-positive white blood cell; experiment: Pilot trial: CD4-positive white blood cell counts; assay type: in vivo, human
Description: as §2, §3

[6] = HIV positive patients and those showing symptoms of AIDS
[7] = HIV positive patients, 10 mg s.c. once a week, 8 weeks, one value per patient (A-T)
[8] = HIV positive patients, 10 mg s.c. once a week, 12 weeks, one value per patient (A-T)

Molecule	EC50 ([1]; two values, evaluated in parallel with peptide added 8 hours prior to and immediately prior to infection, read-out: EC50 against HIV-1HT/92/599)	EC50 ([2]; two values, evaluated in parallel with peptide added 8 hours prior to and immediately prior to infection, read-out: EC50 against HIV-1PaL)	viral load (summary) (HIV; [6])	HIV Viral Load, 8 weeks (HIV; HIV positive patients, 10 mg s.c. once a week, 8 weeks, by PCR, one value per patient (A-T))	HIV Viral Load, 12 weeks (HIV; HIV positive patients, 10 mg s.c. once a week, 12 weeks, by PCR, one value per patient (A-T))	antiviral activity against HIV-1 HT/92/599 (T-cell tropic) ([1]; listed as SEQ ID NO: 1)	antiviral activity against HIV-1 HT/92/599 (T-cell tropic) ([1]; listed as SEQ ID NO:1)	antiviral activity against HIV-1 BaL (macrophage tropic) ([2]; listed as SEQ ID NO: 1)	antiviral activity against HIV-1 BaL (macrophage tropic) ([2]; listed as SEQ ID NO:1)	CD8 positive white blood cell counts (summary) [3, 6]	CD8-positive white blood cell count, 8 weeks [3, 7]	CD8-positive white blood cell count, 12 weeks [3, 8]	Weight, 8 weeks (Pilot trial: body weight; 8 weeks)	Weight, 12 weeks (Pilot trial: body weight; 12 weeks)	adverse effect [4]	Hemoglobin levels, Creatinine, ALT, AST, Alkaline Phos, Bilirubin, GGT, Albumin, Total Protein and globulin tests ([4]; baseline, 8 and 12 weeks)	blood glucose ([4]; not determined to be significant)	CD4 positive white blood cell counts (summary) [5, 6]	CD4-positive white blood cell count, 8 weeks [5, 7]	CD4-positive white blood cell count, 12 weeks [5, 8]
Cc1cn([C@H]2C[C@H](N=[N+]=[N-])[C@@H](CO)O2)c(=O)[nH]c1=O [AZT, reference compound]	8 nM and 6 nM	6 nM and 10 nM	–	–	–	–	–	–	–	–	–	–	–	–	–	–	–	–	–	–
Ac-LKKTETQ-OH [Ac-LKKTETQ-OH]	–	–	decreased viral load significantly	undetectable (9×) and 28410 copies/ml and 450 copies/ml and 8214 copies/ml and 17616 copies/ml and 15201 copies/ml and 145 copies/ml and 12004 copies/ml and 8781 copies/ml and 200 copies/ml and 98687 copies/ml and 24 copies/ml	undetectable (19×) and 5151 copies/ml	no effect	did not demonstrate antiviral activity	no effect	did not demonstrate antiviral activity	increased	980 and 360 and 1310 and 1379 and 1044 and 1296 and 959 and 2120 and 866 and 773 and 594 (2×) and 606 and 939 and 617 and 648 and 456 and 1108 and 1125	1330 and 459 and 1718 and 1394 and 1339 and 1226 and 1190 and 2647 and 958 and 800 and 712 and 893 and 983 and 1034 and 880 and 890 and 521 and 1384 and 1201 and 660	92 and 52 and 59 and 71 and 82 and 79 (2×) and 72 (2×) and 60.5 and 50.5 and 58 and 71.5 and 68.5 and 61 and 56 and 55 and 70 and 78 (2×)	92 and 52 and 72 (4×) and 82 and 79 and 71 (2×) and 51 and 65 and 80 and 69 and 60 and 55 and 58 and 70.5 and 78.5 (2×)	No adverse effect	did not show anything remarkable	small drop	increased	816 and 415 and 158 and 407 and 456 and 477 and 348 and 381 and 439 and 301 and 335 and 543 and 428 and 466 (2×) and 259 and 471 and 300 and 316 and 602	879 and 604 and 175 and 425 and 625 and 662 and 404 and 498 and 510 and 424 and 452 and 749 and 616 and 602 and 368 and 469 and 571 and 430 and 416 and 675
